Columns and labels:
Velvet Leaf = experiment: Postemergent injury rating, velvetleaf; type: in vivo
Procedure: (§1) Various of the compounds to be employed as active agent in accordance with the present invention were evaluated for preemergent application to various species of plants. In this evaluation, a soil was prepared consisting of one part masonry sand and one part shredded top soil blended together in a cement mixer. One gallon of this soil was placed in a 25 × 35 cm. galvanized flat and was patted down with a bench brush until level. A three-row marker was used to make 21/2 cm. deep furrows in approximately two-fifths of the flat. Crop seeds consisting of four kernels of corn, five cotton seeds and five soybean seeds were placed in these furrows. A four-row template was then placed on the remaining soil and the indicated approximate numbers of each of the following seeds were planted, one species to each section: foxtail (millet), 80-100 seeds; velvetleaf (40-50 seeds); rough pigweed (150-250 seeds); and large crabgrass (100-150 seeds).
(§2) Sufficient soil was added to cover the entire flat. Thus, the weed seeds were covered to a depth of about 6 mm. and the crop seeds were covered to a depth of about 3 cm.
(§3) In assaying the effect of the composition as preemergent herbicides, a flat prepared as above, taken either on the day of planting or on the next day, was placed in a chamber equipped with a turntable and an air exhaust. The herbicidal composition, either a spray-type emulsion or a wettable powder, was applied to the flat with a modified DeVilbiss atomizer hooked to an air source. Twelve and one-half milliliters of the composition under test were applied to each flat either on the day of planting or the succeeding day. Injury ratings and observations as to type of injury were made eleven to twelve days after treatment. The injury rating scale used was as follows:
(§4) 4--death When more than one determination was carried out at a given rate, an average value was calculated for the injury rating. Each compound evaluated was formulated as a spray by one of the following procedures. In one method the particular compound was wetted by grinding in a mortar with one part of polyoxyethylene sorbitan monolaurate. Five hundred parts of water were added slowly to the resultant creamy paste to give an aqueous dispersion with a surfactant concentration of 0.2 percent. This dispersion was entirely satisfactory for spray application. In a second procedure the compound was dissolved in one volume of acetone, and the acetone solution was diluted with nineteen volumes of water containing 0.1 percent of polyoxyethylene sorbitan monolaurate.
(§5) Representative compounds of the present invention were evaluated for postemergent application to plants including corn and several weed species. The evaluation was carried out in accordance with the procedures of Examples 49-52 except that the test solutions were applied about 9-12 days after the preparation and seeding of the flats.

Crabgrass [1] = experiment: Postemergent injury rating, crabgrass; type: in vivo, large crabgrass; parameters: key: injury rating scale, 4 = death
Procedure: as §1, §2, §3, §4, §5

Pigweed = experiment: Postemergent injury rating, pigweed; type: in vivo, rough pigweed; parameters: key: injury rating scale, 4 = death
Procedure: as §1, §2, §3, §4, §5

Corn [2] = experiment: Postemergent injury rating, corn; type: in vivo; parameters: key: injury rating scale, 4 = death
Procedure: as §1, §2, §3, §4, §5

Foxtail [3] = experiment: Postemergent injury rating, foxtail; type: in vivo, foxtail (millet); parameters: key: injury rating scale, 4 = death
Procedure: as §1, §2, §3, §4, §5

Cotton [4] = experiment: Postemergent injury rating, cotton; type: in vivo
Procedure: as §1, §2, §3, §4, §5

Soybean [5] = experiment: Postemergent injury rating, soybean; type: in vivo
Procedure: as §1, §2, §3, §4, §5

Foxtail [6] = experiment: Preemergent injury rating, foxtail; type: in vivo, foxtail (millet); parameters: key: injury rating scale on which 4 = death; settings: 8 lbs/acre
Procedure: as §1, §2, §3, §4
(§6) In the following table setting forth the results of the evaluation, column 1 gives the name of the compound under test; column 2, the rate in pounds per acre at which the compound was applied to the test flat; and the remaining columns, the injury to the particular plant seeds or seedlings as measured by the foregoing scale.

Crabgrass [7] = experiment: Preemergent injury rating, crabgrass; type: in vivo, large crabgrass; parameters: key: injury rating scale on which 4 = death; settings: 8 lbs/acre
Procedure: as §1, §2, §3, §4, §6

Soybean [8] = experiment: Preemergent injury rating, soybean; type: in vivo; parameters: key: injury rating scale on which 4 = death; settings: 8 lbs/acre
Procedure: as §1, §2, §3, §4, §6

Cotton [9] = experiment: Preemergent injury rating, cotton; type: in vivo; parameters: key: injury rating scale on which 4 = death; settings: 8 lbs/acre
Procedure: as §1, §2, §3, §4, §6

Corn [10] = experiment: Preemergent injury rating, corn; type: in vivo; parameters: key: injury rating scale on which 4 = death; settings: 8 lbs/acre
Procedure: as §1, §2, §3, §4, §6

Nc1c(Br)nc2nc(C(F)(F)F)n(O)c2c1Br [5,7-dibromo-6-amino-1-hydroxy-2-(trifluoromethyl)-1H-imidazo(4,5-b)pyridine]
1: Injury Rating, Corn (Corn [2]; 8 lbs/acre)
2: Injury Rating, Velvet Leaf (Velvet Leaf; 8 lbs/acre)
3: Injury Rating, Crabgrass (Crabgrass [1]; 8 lbs/acre) | Injury Rating, Pigweed (Pigweed; 8 lbs/acre) | Injury Rating, Foxtail (Foxtail [3]; 8 lbs/acre)

On1c(C(F)(F)F)nc2ncc(C(F)(F)F)cc21 [1-hydroxy-2,6-bis(trifluoromethyl)-1H-imidazo(4,5-b)pyridine]
3: Injury Rating, Soybean (Soybean [8]) | Injury Rating, Corn (Corn [10])
4: Injury Rating, Cotton (Cotton [4]; 1 lbs/acre) | Injury Rating, Cotton (Cotton [4]; 2 lbs/acre) | Injury Rating, Cotton (Cotton [4]; 4 lbs/acre) | Injury Rating, Cotton (Cotton [4]; 8 lbs/acre) | Injury Rating, Velvet Leaf (Velvet Leaf; 1 lbs/acre) | Injury Rating, Velvet Leaf (Velvet Leaf; 2 lbs/acre) | Injury Rating, Velvet Leaf (Velvet Leaf; 4 lbs/acre) | Injury Rating, Velvet Leaf (Velvet Leaf; 8 lbs/acre) | Injury Rating, Soybean (Soybean [5]; 1 lbs/acre) | Injury Rating, Soybean (Soybean [5]; 2 lbs/acre) | Injury Rating, Soybean (Soybean [5]; 4 lbs/acre) | Injury Rating, Soybean (Soybean [5]; 8 lbs/acre) | Injury Rating, Foxtail (Foxtail [6]) | Injury Rating, Crabgrass (Crabgrass [7]) | Injury Rating, Crabgrass (Crabgrass [1]; 1 lbs/acre) | Injury Rating, Crabgrass (Crabgrass [1]; 2 lbs/acre) | Injury Rating, Crabgrass (Crabgrass [1]; 4 lbs/acre) | Injury Rating, Crabgrass (Crabgrass [1]; 8 lbs/acre) | Injury Rating, Pigweed (Pigweed; 1 lbs/acre) | Injury Rating, Pigweed (Pigweed; 2 lbs/acre) | Injury Rating, Pigweed (Pigweed; 4 lbs/acre) | Injury Rating, Pigweed (Pigweed; 8 lbs/acre) | Injury Rating, Corn (Corn [2]; 2 lbs/acre) | Injury Rating, Corn (Corn [2]; 4 lbs/acre) | Injury Rating, Corn (Corn [2]; 8 lbs/acre) | Injury Rating, Foxtail (Foxtail [3]; 1 lbs/acre) | Injury Rating, Foxtail (Foxtail [3]; 2 lbs/acre) | Injury Rating, Foxtail (Foxtail [3]; 4 lbs/acre) | Injury Rating, Foxtail (Foxtail [3]; 8 lbs/acre) | Injury Rating, Cotton (Cotton [9])
1: Injury Rating, Corn (Corn [2]; 1 lbs/acre)

Cc1cnc2nc(C(F)(F)F)n(O)c2c1 [6-methyl-1-hydroxy-2-(trifluoromethyl)-1H-imidazo(4,5-b)pyridine]
1: Injury Rating, Velvet Leaf (Velvet Leaf; 8 lbs/acre) | Injury Rating, Corn (Corn [2]; 8 lbs/acre)
3: Injury Rating, Crabgrass (Crabgrass [1]; 8 lbs/acre) | Injury Rating, Pigweed (Pigweed; 8 lbs/acre) | Injury Rating, Foxtail (Foxtail [3]; 8 lbs/acre)
